In paper PMC7414866, “The Rnf complex is a Na^+ coupled respiratory enzyme in a fermenting bacterium, Thermotoga maritima” (Communications Biology, 2020) one finds inhibition data, which are given here for one compound.

The assay addresses T1, Na+-F1FO ATP synthase (Thermotoga maritima, UniProt O50550+Q9X1U7+Q9X1V0).
T1 construct: gene atpE; native F1FO complex purified with DDM, no tags; 550 kDa on native PAGE; co-purified with Rnf; with ATP synthase gamma chain; ATP synthase subunit delta; ATP synthase epsilon chain; ATP synthase subunit a; ATP synthase subunit b
The assay is described as follows: ATP hydrolysis (phosphate release) after preincubation. Type of assay: biochemical. The settings on record: covalent; preincubation without Na+ 30 min room temperature, then 5 min 80 °C; 3 mM K2-ATP, pH 7.4; competes with Na+.

For `C(=NC1CCCCC1)=NC1CCCCC1` [DCCD], the inhibition entry was “DCCD inhibited ATP hydrolysis but inhibition was relieved by addition of Na^+”.
